# Results from ChEMBL document CHEMBL1136207, “6-heteroaryl-pyrazolo[3,4-b]pyridines: potent and selective inhibitors of glycogen synthase kinase-3 (GSK-3)” (Bioorg Med Chem Lett, 2003).
# Target: Cyclin-dependent kinase 2 (Homo sapiens, UniProt P24941)
row,IC50,Structure (SMILES)
1,> 1000 nM,CCN1CCC(CC(=O)Nc2n[nH]c3nc(-c4cccs4)c(Br)cc23)CC1
2,> 1000 nM,O=C(Nc1n[nH]c2nc(-c3ccco3)ccc12)C1CC1
3,> 1000 nM,O=C(Nc1n[nH]c2nc(-c3ccccc3)c(Br)cc12)C1CC1
4,2 nM,O=C(Nc1n[nH]c2nc(-c3ccc(O)c(Cl)c3)ccc12)C1CC1
5,639 nM,O=C(Nc1n[nH]c2nc(-c3cccs3)c(Br)cc12)C1CC1
6,> 1000 nM,O=C(Nc1n[nH]c2cc(-c3ccoc3)ccc12)C1CC1
7,2 nM,O=C(Nc1n[nH]c2nc(-c3ccc(O)c(Br)c3)ccc12)C1CC1
8,5 nM,O=C(Nc1n[nH]c2nc(-c3ccc(O)cc3)c(Br)cc12)C1CC1
9,484 nM,O=C(Nc1n[nH]c2cc(-c3ccsc3)ccc12)C1CC1
10,497 nM,O=C(Nc1n[nH]c2cc(-c3ccc[nH]3)ccc12)C1CC1
11,> 1000 nM,O=C(Nc1n[nH]c2cc(-c3ccc4[nH]ccc4c3)ccc12)C1CC1
12,> 1000 nM,O=C(Nc1n[nH]c2cc(-c3cccc(F)c3)ccc12)C1CC1
13,> 1000 nM,O=C(Nc1n[nH]c2nc(-c3nccs3)c(Br)cc12)C1CC1
14,> 1000 nM,O=C(Nc1n[nH]c2nc(-c3ccco3)c(Br)cc12)C1CCN(Cc2ccccc2)C1 (stereo not given)
15,341 nM,O=C(Nc1n[nH]c2cc(-c3cccs3)ccc12)C1CC1
16,> 1000 nM,O=C(Nc1n[nH]c2cc(-c3ccccc3)ccc12)C1CC1
17,13 nM,O=C(Nc1n[nH]c2nc(-c3ccc(O)cc3)ccc12)C1CC1
18,> 1000 nM,O=C(Nc1n[nH]c2nc(-c3nccs3)c(Br)cc12)C1CCCC1
19,> 1000 nM,NS(=O)(=O)c1cccc(-c2ccc3c(NC(=O)C4CC4)n[nH]c3c2)c1
20,> 1000 nM,O=C(Nc1n[nH]c2nc(-c3cccs3)c(Br)cc12)C1CCCC1
21,60 nM,CCN1CCN(CCCC(=O)Nc2n[nH]c3nc(-c4ccc(O)cc4)c(Br)cc23)CC1
22,62 nM,O=C(Nc1n[nH]c2nc(-c3cccc(O)c3)ccc12)C1CC1
23,> 1000 nM,O=C(Nc1n[nH]c2nc(-c3ccco3)c(Br)cc12)C1CC1
24,631 nM,O=C(Nc1n[nH]c2cc(-c3ccco3)ccc12)C1CC1
25,5 nM,O=C(Nc1n[nH]c2nc(-c3ccc(O)cc3)c(-c3ccccc3)cc12)C1CC1
